Consider 26 compounds from patent publication US20260008775A1, “AZOLE MODULATORS OF CHOLESTEROL BIOSYNTHESIS AND THEIR USE FOR PROMOTING REMYELINATION” (GENENTECH, INC., priority 2022, published 2026).

The EC50 is the midpoint of the concentration-response curve. In general, Ki refers to the equilibrium dissociation constant of an inhibitor or competing ligand from its target.

The test system of test [1] is zymostenol accumulation (EBP) in EpiSC-derived OPCs. The experiment in a line: GC/MS-based sterol profiling, zymostenol accumulation in EpiSC-derived OPCs. The class given is cell-based, mouse. Particulars: Mus musculus, 24 h, EpiSC-derived OPCs, 24 hr, 8 doses from 0.15 nM to 333 nM; read-out: Mouse Zymostenol GCMS EC50. The method, boiled down:
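Zymostenol level is expressed relative to that after 24 h with 100 nM positive-control reference, measured by full-scan GC/MS (m/z 458) with cholesterol-d7 internal standard after BSTFA derivatisation. Cells were EpiSC-derived OPCs, 100,000/well in N2B27 without growth factors, treated 24 h, from two or more independent platings.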

Test [2] deals with human emopamil binding protein and human 7-dehydrocholesterol reductase (hEBP-DHCR7) (Homo sapiens (Human), UniProt Q15125). The experiment in a line: hEBP-DHCR7 radioligand binding assay (filter binding, membranes of co-expressing HEK293 cells). Particulars: competition with [3H] radioligand, 8 doses 0.06 to 5000 nM, Ki calculated from IC50. The method, boiled down:
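Compound, either single dose 1 μM or eight 5-fold dilutions from 0.06 to 5000 nM, competed with a [3H]-labelled ligand added at 25 nM for binding to co-expressing HEK293 membranes. IC50 came from nonlinear regression, with full block and DMSO as controls, then Cheng–Prusoff conversion to Ki.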

For a further test, the system named is EpiSC-derived OPCs. The experiment in a line: In vitro phenotypic screening of OPCs, MBP high-content imaging (percentage of oligodendrocytes). It counts as cell-based, mouse. Particulars: Mus musculus, 72 h, 3 days, MBP stain, dose-response 0.5 nM to 1000 nM; read-out: OPC EC50. The method, boiled down:
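EC50 was fitted by Hill equation to the MBP-positive oligodendrocyte percentage from imaging of fixed, MBP- and DAPI-stained cells. Treatment lasted 3 days at 37 °C, final doses 0.5–1000 nM over 8 points, in growth factor-free N2B27. Cells were EpiSC-derived OPCs, tested in at least two independent platings.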

Sequence of human emopamil binding protein and human 7-dehydrocholesterol reductase (hEBP-DHCR7) (Q15125 whole entry): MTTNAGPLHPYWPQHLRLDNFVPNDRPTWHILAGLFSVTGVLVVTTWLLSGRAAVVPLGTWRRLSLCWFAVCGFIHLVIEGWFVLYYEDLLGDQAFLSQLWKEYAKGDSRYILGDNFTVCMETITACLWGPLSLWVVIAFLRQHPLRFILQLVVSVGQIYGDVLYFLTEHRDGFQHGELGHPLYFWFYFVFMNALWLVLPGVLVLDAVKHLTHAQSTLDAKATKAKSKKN

On to `CC(C)n1nc(-c2cncc(C(F)(F)F)c2)nc1[C@H]1[C@@H]2C[C@H](N3CCCOCC3)C[C@@H]21` [Compound 51, 4-((1R,3r,5S,6r)-6-(1-Isopropyl-3-(5-(trifluoromethyl)pyridin-3-yl)-1H-1,2,4-triazol-5-yl)bicyclo[3.1.0]hexan-3-yl)-1,4-oxazepane], for which the results for the EC50 (in test [1]; in the test on EpiSC-derived OPCs) were 77 nM and 82.5 nM, respectively. Moreover, the Ki in test [2] was 358 nM.
`CC(C)n1nc(-c2cccc(F)c2)cc1[C@H]1[C@@H]2C[C@H](N3CCCOCC3)C[C@@H]21` [Compound 195*, 4-((1R,3r,5S,6r)-6-(3-(3-Fluorophenyl)-1-isopropyl-1H-pyrazol-5-yl)bicyclo[3.1.0]hexan-3-yl)-1,4-oxazepane]: the concentration for a half-maximal effect (EC50) amounted to 2.42 nM in test [1] and 7.49 nM in the test on EpiSC-derived OPCs. For the same compound, the Ki in test [2] was 12.7 nM.
`CC(C)n1nc(-c2ccnc(C(F)(F)F)n2)cc1[C@H]1[C@@H]2C[C@H](N3CCOC[C@@H]3C)C[C@@H]21` [Compound 101, (S)-4-((1R,3r,5S,6S)-6-(1-Isopropyl-3-(2-(trifluoromethyl)pyrimidin-4-yl)-1H-pyrazol-5-yl)bicyclo[3.1.0]hexan-3-yl)-3-methylmorpholine]: the EC50 in test [1] was 1.1 nM; in the test on EpiSC-derived OPCs, 2.02 nM. Besides, the inhibition constant (Ki) in test [2] is 7.22 nM.
For `CC(C)n1nc(-c2cc(C(F)(F)F)ccn2)nc1[C@@H]1CC[C@H](N2CCOCC2)C1` (single isomer, unassigned) [28*], the EC50 in test [1] was determined as 8.11 nM; in the test with EpiSC-derived OPCs, 80.4 nM. In test [2], the inhibition constant Ki is 29.9 nM.
Consider `FC(F)(F)c1cccc(-c2nc([C@H]3CC[C@@H](N4CCCOCC4)C3)n(C3CC3)n2)n1` (single isomer, unassigned) [10*], for which the values for the EC50 (in test [1]; with EpiSC-derived OPCs) were 18 nM and 54.2 nM, respectively. In test [2], the Ki was 95.8 nM.
Consider `CC(C)n1nc(-c2ccc(C(F)(F)F)nc2)nc1[C@H]1CC[C@@H](N2CCO[C@H](CF)C2)C1` (single isomer, unassigned) [Compound 169], for which the EC50 amounted to 7.6 nM in test [1] and 6.2 nM in the test on EpiSC-derived OPCs. For the same compound, in test [2], the Ki was 30.2 nM.
With `CC(C)n1nc(-c2cccc(C(F)(F)F)c2)nc1[C@H]1[C@@H]2C[C@@H](N3CCOC[C@@H]3C)C[C@@H]21` [Compound 66, (S)-4-((1R,3r,5S,6S)-6-(1-Isopropyl-3-(3-(trifluoromethyl)phenyl)-1H-1,2,4-triazol-5-yl)bicyclo[3.1.0]hexan-3-yl)-3-methylmorpholin], the EC50 in test [1] was 2.84 nM; in the test on EpiSC-derived OPCs, 14.9 nM. The Ki in test [2] is 50.2 nM.
Consider `CC(C)n1nc([C@H]2CC[C@@H](C(F)(F)F)CC2)nc1[C@H]1[C@@H]2C[C@H](N3CCOC[C@H]3C)C[C@@H]21` (single isomer, unassigned) [Compound 166*], for which the results for the EC50 (in test [1]; with EpiSC-derived OPCs) were 30.5 nM and 108 nM, respectively. The Ki in test [2] is 41 nM.
For `CC(C)n1nc(-c2cccc(C(F)(F)F)c2)nc1[C@@H]1CC[C@@H](N2CCOCC2)C1` (single isomer, unassigned) [21*], the EC50 is 7.71 nM in test [1] and 51.7 nM in the test with EpiSC-derived OPCs. Also, the Ki in test [2] was 27.1 nM.
For `CC(C)n1nc(-c2cncc(C(F)(F)F)c2)cc1[C@H]1[C@@H]2C[C@H](N3CCCOCC3)C[C@@H]21` [Compound 29, 4-((1R,3s,5S,6r)-6-(1-Isopropyl-3-(5-(trifluoromethyl)pyridin-3-yl)-1H-pyrazol-5-yl)bicyclo [3.1.0]hexan-3-yl)-1,4-oxazepane] the same measures were 3.19 nM, 19.8 nM and 20 nM.
Turning to `COCCN1CCN([C@H]2CC[C@@H](c3nc(-c4ccc(C(F)(F)F)nc4)nn3C(C)C)C2)CC1` [Compound 83, 1-((1S,3R)-3-(1-Isopropyl-3-(6-(trifluoromethyl)pyridin-3-yl)-1H-1,2,4-triazol-5-yl)cyclopentyl)-4-(2-methoxyethyl) piperazine], the EC50 in test [1] is 12.5 nM; in the test with EpiSC-derived OPCs, 78.4 nM. In test [2], the inhibition constant (Ki) is 10.9 nM.
For `CC(C)n1nc(-c2cccc(OC(F)F)c2)cc1[C@H]1[C@@H]2C[C@@H](N3CCCOCC3)C[C@@H]21` (single isomer, unassigned) [Compound 200*], the results for the half-maximal effective concentration (EC50) (in test [1]; in the test on EpiSC-derived OPCs) were 13.7 nM and 36.7 nM, respectively. Also, the Ki in test [2] is 11.6 nM.
For the compound `CC(C)n1nc(-c2cncc(C(F)(F)F)c2)cc1[C@H]1[C@@H]2C[C@@H](N3CCOC(C)(C)C3)C[C@@H]21` [Compound 33, 4-((1R,3s,5S,6r)-6-(1-Isopropyl-3-(5-(trifluoromethyl)pyridin-3-yl)-1H-pyrazol-5-yl)bicyclo[3.1.0]hexan-3-yl)-2,2-dimethylmorpholine], the EC50 in test [1] was 5.33 nM; in the test with EpiSC-derived OPCs, 30.5 nM. Besides, in test [2], the Ki was 19.4 nM.
Consider `CC(C)n1nc(-c2ccc(C(F)(F)F)c(F)c2)nc1[C@H]1CC[C@H](N2CCOCC2)C1` (single isomer, unassigned) [Compound 112*], for which the EC50 came out at 23.8 nM in test [1] and 196 nM with EpiSC-derived OPCs. In test [2], the Ki was 90.8 nM.
Take `CC(C)n1nc(-c2cncc(C(F)(F)F)c2)cc1[C@H]1CC[C@H](N2CCOCC2)CC1` [2*, 4-((1r,4r)-4-(1-isopropyl-3-(5-(trifluoromethyl)pyridin-3-yl)-1H-pyrazol-5-yl)cyclohexyl)morpholine]: the EC50 stood at 17 nM in test [1] and 97.5 nM with EpiSC-derived OPCs. For the same compound, the Ki in test [2] is 40.5 nM.
As for `CC(C)n1nc(-c2cncc(C(F)(F)F)n2)cc1[C@H]1[C@@H]2C[C@@H](N3CCOCC3)C[C@@H]21` [Compound 107, 4-((1R,3s,5S,6r)-6-(1-Isopropyl-3-(6-(trifluoromethyl)pyrazin-2-yl)-1H-pyrazol-5-yl)bicyclo[3.1.0]hexan-3-yl)morpholine], the EC50 in test [1] was 4.86 nM; in the test on EpiSC-derived OPCs, 30.8 nM. Also, the Ki in test [2] was 11.7 nM.
The matching figures for `CC(C)n1nc(-c2ccc(F)cc2)cc1[C@H]1[C@@H]2C[C@H](N3CCCOCC3)C[C@@H]21` [Compound 183*, 4-((1R,3r,5S,6r)-6-(3-(4-Fluorophenyl)-1-isopropyl-1H-pyrazol-5-yl)bicyclo[3.1.0]hexan-3-yl)-1,4-oxazepane]: 8.6 nM, 13.1 nM and 10.6 nM.
For `CC(C)n1nc(-c2cncc(C(F)(F)F)c2)cc1[C@H]1[C@@H]2C[C@H](N3CCOC[C@@H]3C)C[C@@H]21` (single isomer, unassigned) [45*] the same measures were 11 nM, 48 nM and 53 nM.
As to `CC(C)n1nc(-c2cnc(C(F)(F)F)nc2)nc1[C@H]1CC[C@@H](N2CCO[C@H](C)C2)C1` [Compound 144, (R)-4-((1R,3S)-3-(1-isopropyl-3-(2-(trifluoromethyl)pyrimidin-5-yl)-1H-1,2,4-triazol-5-yl)cyclopentyl)-2-methylmorpholine], the EC50 in test [1] turned out to be 5.7 nM; with EpiSC-derived OPCs, 48 nM. For the same compound, in test [2], the Ki is 325 nM.
As for `CC(C)n1nc(-c2cnc(C(F)(F)F)nc2)cc1[C@H]1CC[C@@H](N2CCO[C@H](CF)C2)C1` (single isomer, unassigned) [Compound 133*], the EC50 in test [1] turned out to be 21.2 nM; in the test with EpiSC-derived OPCs, 274 nM. The inhibition constant Ki in test [2] was 17.1 nM.
As for `CC(C)n1nc(-c2cncc(C(F)(F)F)c2)cc1[C@H]1CC[C@@H](N2CCOCC2)C1` (single isomer, unassigned) [60*], the EC50 in test [1] is 5.52 nM; in the test with EpiSC-derived OPCs, 36.2 nM. Besides, in test [2], the Ki is 19.2 nM.
For the compound `Cc1ccccc1-c1cc([C@H]2[C@@H]3C[C@@H](N4CCCOCC4)C[C@@H]32)n(C(C)C)n1` (single isomer, unassigned) [Compound 198*], the results for the EC50 (in test [1]; in the test on EpiSC-derived OPCs) were 41.3 nM and 105 nM, respectively. Further, the Ki in test [2] was 20.2 nM.
In the case of `COCCN1CCN([C@@H]2CC[C@H](c3cc(-c4ccc(C(F)(F)F)nc4)nn3C(C)C)C2)CC1` (single isomer, unassigned) [93*], the 50% effective concentration (EC50) came to 22.5 nM in test [1] and 125 nM in the test on EpiSC-derived OPCs. Further, the Ki in test [2] is 19.7 nM.
As for `CC(C)n1nc(-c2ccc(OC(F)(F)F)cc2)cc1[C@H]1[C@@H]2C[C@@H](N3CCCOCC3)C[C@@H]21` [Compound 186*, 4-((1R,3s,5S,6r)-6-(1-isopropyl-3-(4-(trifluoromethoxy)phenyl)-1H-pyrazol-5-yl)bicyclo[3.1.0]hexan-3-yl)-1,4-oxazepane], the figures for the EC50 (in test [1]; with EpiSC-derived OPCs) were 56.7 nM and 431 nM, respectively. For the same compound, the Ki in test [2] is 20.6 nM.
With `CC(C)n1nc(-c2ccc(C(F)(F)F)cc2)cc1[C@H]1[C@@H]2C[C@H](N3CCOCC3)C[C@@H]21` [Compound 173, 4-((1R,3r,5S,6r)-6-(1-Isopropyl-3-(4-(trifluoromethyl)phenyl)-1H-pyrazol-5-yl)bicyclo[3.1.0]hexan-3-yl)morpholine], the figures for the EC50 (in test [1]; in the test with EpiSC-derived OPCs) were 4 nM and 22.3 nM, respectively. For the same compound, in test [2], the Ki is 7.81 nM.
For `CC(C)n1nc([C@H]2CC[C@@H](C(F)(F)F)CC2)nc1[C@H]1[C@@H]2C[C@@H](N3CCOC[C@H]3C)C[C@@H]21` (single isomer, unassigned) [Compound 167*] the same measures were 3.58 nM, 29 nM and 25.1 nM.
